Data reported in patent publication US20080125454A1, “Methods and Compositions for Treatment of Scleritis and Related Disorders” (Wyeth, priority 2006, published 2008).

Target: T1, P-selectin binding to P-selectin glycoprotein ligand-1 (PSGL-1) (Homo sapiens, UniProt P16109)
T1 construct: truncated form of human P-selectin comprised of the lectin and EGF domains (P-LE)
T1 sequence (P16109 42-198): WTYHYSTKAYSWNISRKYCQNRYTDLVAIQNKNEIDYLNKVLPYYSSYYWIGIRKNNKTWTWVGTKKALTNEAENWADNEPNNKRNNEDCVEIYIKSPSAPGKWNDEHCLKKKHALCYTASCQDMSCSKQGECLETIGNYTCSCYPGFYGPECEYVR
Assay: Biacore inhibition of P-selectin binding to PSGL-1 (P-LE binding to immobilized SGP-3)
Conditions: 1 mM; read-out: percent inhibition of binding (positive control)
Procedure: Compounds of the present teachings can be assayed for selectin inhibitory activity using any of the procedures known in the art. One convenient procedure is the determination of IC50 values for inhibition of P-selectin binding to P-selectin glycoprotein ligand-1 (PSGL-1) using a Biacore instrument.
The Biacore 3000 is an instrument that uses surface plasmon resonance to detect binding of a solution phase analyte to an immobilized ligand on a sensor chip surface. The analyte sample is injected under flow using a microfluidic system. Binding of analyte to ligand causes a change in the angle of refracted light at the surface of the sensor chip, measured by the Biacore instrument in resonance units (RUs).
SGP-3 is a purified sulfoglycopeptide form of human PSGL-1 that contains the P-selectin binding determinants (See Somers et al., 2000, Cell 103, 467-479). […]
The Biacore assay measures the signal in RU produced by binding of P-LE to SGP-3 in the presence and absence of inhibitors. Percent inhibition of binding is calculated by dividing the inhibited signal by the uninhibited signal subtracting this value from one then multiplying by one hundred. […] The data from this titration are plotted, RU values vs. concentration, and the IC50 is determined by extrapolation from the plot. […]

Q: How did the inhibition at 1000 µM turn out when CC1(C)[C@@H](O[C@H]2O[C@H](C(=O)O)[C@@H](O)[C@H](O)[C@H]2O[C@@H]2O[C@H](C(=O)O)[C@@H](O)[C@H](O)[C@H]2O)CC[C@]2(C)[C@H]3C(=O)C=C4[C@@H]5C[C@@](C)(C(=O)O)CC[C@]5(C)CC[C@@]4(C)[C@]3(C)CC[C@@H]12 [Glycyrrhizin] was run?
A: 50%
